The source of these data is patent US10610517B2, “Compositions and methods for treating neoplastic diseases” (Celgene International II Sàrl, priority 2004, dated 2020).

The test system of data set [1] is MM.1S cells. Kind of data set: MTT viability of MM.1S cells with or without rhIL-6 or rhIGF-I. The class given is cell-based, human. From the text:
Adhesion of MM cells to BMSCs induces IL-6 and IGF-I secretion from BMSCs, which not only regulates the growth of MM cells, but also protects against chemotherapy. See Hardin, J., MacLeod, S., Grigorieva, I., Chang, R., Barlogie, B., Xiao, H. & Epstein, J. (1994) Blood 84, 3063-70 and Chauhan, D., Kharbanda, S., Ogata, A., Urashima, M., Teoh, G., Robertson, M., Kufe, D. W. & Anderson, K. C. […] Thus, whether rhIL-6 or rhIGF-I inhibits apoptosis in MM cells induced by the compound of Formula (II) (X=Cl) was evaluated. […] At 24 h cells were harvested and viability analyzed by MTT assays. […] Median viability was 51±2.1% after treatment with Dex and 92±5.5% for Dex+rhIL-6 (P=0.05, as determined by one-sided Wilcoxon rank-sum test). Results are mean±SD of three independent experiments. […] In contrast and as in other studies, both IL-6 and IGF-I block Dex-induced decreased MM.1S cell viability. See Chauhan, D., Hideshima, T. & Anderson, K. C. (2003) Int J Hematol 78, 114-20 and Mitsiades, C. S., Mitsiades, N., Poulaki, V., Schlossman, R., Akiyama, M., Chauhan, D., Hideshima, T., Treon, S. P., Munshi, N. C., Richardson, P. G. & Anderson, K. C.

Data set [2] concerns Mouse embryonic fibroblast (MEFs). Kind of data set: MTT viability of MEFs with wild-type or knock-out Bax. The class given is cell-based. Conditions: 48 h; FIG. 12F.
Description: Results are mean±SD of three independent experiments (P<0.05).
The target of data set [3] is T1, human erythrocyte-derived 20S proteasome (Homo sapiens, UniProt P28072+P28074+Q99436).
T1 construct: Purified human erythrocyte-derived 20S proteasome were obtained from Biomol; purchased Biomol, Plymouth Meeting, Pa; host or cells: purified from human erythrocytes
Description: In vitro 20S proteasome activity assay. It counts as biochemical. Conditions: Suc-LLVY-AMC, Z-LLE-AMC, Boc-LRR-AMC substrates; FIG. 1. The procedure: The chymotrypsin-like activity of the 20S proteasome was measured as described in Stein, R. L., Melandri, F. & Dick, L. (1996) Biochemistry 35, 3899-908 and Lightcap, E. S., McCormack, T. A., Pien, C. […] Purified human erythrocyte-derived 20S proteasome were obtained from Biomol, Plymouth Meeting, Pa. The chymotrypsin-like, caspase-like and trypsin-like activity activities of the 20S proteasome were determined using Suc-LLVY-AMC, Z-LLE-AMC (Boston Biochem, Cambridge, Mass.) and Boc-LRR-AMC (Bachem Bioscience, King of Prussia, Pa.) as peptide substrates, respectively. Fluorescence of the cleaved peptide substrate was measured using a Fluoroskan Ascent 96-well microplate reader (Thermo Electron, Waltham, Mass.). The EC50 values were calculated by Prism (GraphPad Software) using a sigmoidal dose-response, variable slope model. The EC50 values were defined as the drug concentration at which 50% of the maximal relative fluorescence is inhibited.

A further data set deals with patient MM-derived BMSCs. Description: DNA fragmentation apoptosis assay on bone marrow stromal cells. The class given is cell-based, human. The note with it: 20 nM, 24 h, BMSCs Patient #1-5; FIG. 6.
The target in data set [4] is proteasome β-5, β-2, β-1 subunits in MM.1S MM cells (Homo sapiens, UniProt P28072+P28074+Q99436). Kind of data set: Competition experiment with AdaY(125I)Ahx3L3VS in MM.1S cells. The class given is cell-based. The note with it: 7 nM. As to the method:
Determination of whether the compound of formula II (X=Cl) affects the proteasome activity in multiple myeloma cells in vitro was made using a competition experiment with AdaY^125Iahx3L3VS. In this assay, sites that are not targeted by the compound of formula II (X=Cl) are labeled by AdaY(^125I)Ahx3L3VS and visualized by autoradiography, while sites that are targeted by the compound of formula II (X=Cl) can not be seen on the autoradiogram. […] 60 μg of protein extracts was incubated for 2 h with the iodinated proteasome inhibitor AdaY^125Iahx3L3VS at 37° C. Proteins were then denatured by boiling in reducing sample buffer and separated on a 12.5% SDS-PAGE gel, followed by autoradiography.

For data set [5], the system named is MM.1S cells. Description: cells. Conditions: for viable cells: FIG. 12D. From the text: MM.1S cells were also transiently transfected using Cell line Nucleofecto kit V, according to the manufacturer's instructions (Amaxa Biosystems, Germany), with vector alone, DN-caspase-8, DN-caspase-9, or DN-FADD and cotransfected with vector containing green fluorescence protein (GFP) alone.
It was next determined whether inhibition of an upstream signaling pathway that leads to caspase-8 activation affects the response to the compound of formula (II) (X=Cl) or Bortezomib. The Fas-associated death domain (FADD) protein is an important part of the deathinducing signaling complexes (DISCs) that assemble upon engagement of TNF receptor family members, such as Fas, resulting in proteolytic processing and autoactivation of pro-caspase-8. Since both the compound of formula (II) (X=Cl) and Bortezomib trigger caspase-8 activation, the role of FADD during this event in MM cells was evaluated using DN-FADD.

In data set [6] the test system is MM.1S, MM.1R, RPMI-8226, Dox-40, OPM2 and U266 cells. Kind of data set: MTT cell viability of MM cell lines. The class given is cell-based, human. The note with it: 24 h, range over all six cell lines; FIG. 5A. From the text: Results are mean±S.D from three independent experiments (P<0.005; n=3 for all Cell lines).

The structures appear in SMILES notation.

Regarding `CC12OC(=O)C1(C(O)C1C=CCCC1)NC(=O)C2CCCl` (stereo not shown) [compound of formula (II) (X=Cl)], the median cell viability in the data set with MM.1S cells [1] (agent + rhIL-6 (10 ng/ml), 24 h (compound 7 nM; Dex 0.5 μM)) is 51.2±3.2%; in the data set on MM.1S cells [1] (agent alone, 24 h (compound 7 nM; Dex 0.5 μM)), 47±2.3%; in the data set on MM.1S cells [1] (compound 7 nM + rhIGF-I (50 ng/ml), 24 h), 50.3%±2.0. In addition, the “cell viability in Bax (WT) and Bax (knock-out) MEFs” value in data set [2] was “decreases viability in both Bax (WT) and Bax (knock-out)”. Besides, in data set [3], the “inhibition of chymotrypsin-like, caspase-like and trypsin-like activities of the 20S proteasome” value is listed as “inhibits all three proteasome activities”. Also, the “apoptosis by DNA fragmentation assay” value with patient MM-derived BMSCs is reported as “does not induce apoptosis”. The “labeling of β-5 subunit by AdaY(125I)Ahx3L3VS” value in data set [4] (30 mins to 6 h, FIG. 3) is listed as “markedly less labeled”. Besides, the “labeling of β-2 and β-1 subunits by AdaY(125I)Ahx3L3VS” value in data set [4] (6 h, data not shown) was “decreased the labeling of the β-2 subunits (tryptic-activity) and the β-1 subunits (caspase-like activity)”. For the same molecule, the viable cells in the data set with MM.1S cells [5] (DN-FADD-transfected MM.1S cells) was 76%±5.1; with MM.1S cells [5] (vector-transfected MM.1S cells) it was 42%±2.0. Besides, the “effect of caspase-8 blockade on triggered cell death” value in the data set with MM.1S cells [5] (IETD-fmk, FIG. 12A) is given as “significant decrease in cell death”. The “effect of caspase-9 inhibition on decreased viability” value with MM.1S cells [5] (LEHD-FMK, FIG. 12A) is “only moderately blocked”. Besides, the IC50 – broadly, the concentration needed to halve the response being measured – is 7 nM in the data set on MM.1S cells [5] (MM.1S cells, concentration used for treatment) and 7 to 24 nM in data set [6]. In addition, in the data set on MM.1S cells [5] (treated at IC50, FIG. 12B), the “survival of DN-caspase-8-transfected compared to DN-caspase-9-transfected cells” value is “markedly increased survival”. The “effect of caspase-3 inhibition on induced apoptosis” value in the data set with MM.1S cells [5] (z-VAD-fmk, FIG. 12A) is given as “markedly abrogates”.
